Activity calls are given as the source filed them. The calls are words filed in the database; no cut-off is given here.
How the values were obtained:
Cortical neurone [1] = experiment: Neuroprotective activity against rat primary cortical neurons assessed as reduction in cell injury at 10 uM preincubated with compound followed by compound washout and OGD and RX exposure by MTT assay; format: functional, cell-based
BHK [2] = experiment: Activation of dog NCX1 expressed in BHK cells assessed as increase in Na+ free solution induced calcium level at 0.1 to 10 uM by fluo-4 AM dye based assay; format: cell-based; settings: Canis lupus familiaris, filed as activator, dose 0.1-10 µM
[3] = Inhibition of dog NCX1 expressed in BHK cells assessed as decrease in Na+ free solution induced calcium level by patch-clamp electrophysiology assay; format: cell-based; settings: Canis lupus familiaris
Cortical neurone [4] = experiment: Neuroprotective activity against rat primary cortical neurons assessed as reduction in cell injury under hypoxic condition by MTT assay; format: functional, cell-based; settings: dose 10.0 µM
Cortical neurone [5] = experiment: Neuroprotective activity against rat primary cortical neurons assessed as reduction in cell injury under RX and chemical hypoxia condition by MTT assay; format: functional, cell-based; settings: dose 10.0 µM
BHK [6] = experiment: Activation of dog NCX1 expressed in BHK cells assessed as increase in Na+ free solution induced calcium level at 10 uM by fluo-2 AM dye based assay; format: cell-based; settings: Canis lupus familiaris, filed as activator
BHK [7] = experiment: Inhibition of dog NCX1 expressed in BHK cells assessed as decrease in Na+ free solution induced calcium level at 0.01 to 10 uM by Fluo-4 AM dye based assay; format: cell-based; settings: Canis lupus familiaris, dose 0.01-10 µM
BHK [8] = experiment: Inhibition of dog NCX1 expressed in BHK cells assessed as decrease in Na+ free solution induced calcium level at 10 uM by Fluo-2 AM dye based assay; format: cell-based; settings: Canis lupus familiaris
BHK [9] = experiment: Activation of dog NCX3 expressed in BHK cells assessed as increase in Na+ free solution induced calcium level at 0.1 to 10 uM by fluo-4 AM dye based assay; format: cell-based; settings: Canis lupus familiaris, filed as activator, dose 0.1-10 µM
BHK [10] = experiment: Activation of dog NCX3 expressed in BHK cells assessed as increase in Na+ free solution induced calcium level at 10 uM by fluo-2 AM dye based assay; format: cell-based; settings: Canis lupus familiaris, filed as activator
BHK [11] = experiment: Activation of dog NCX1 expressed in BHK cells assessed as forward NCX current at 10 uM at -120 mV holding potential by whole-cell patch clamp electrophysiology method; format: cell-based; settings: Canis lupus familiaris, filed as activator
BHK [12] = experiment: Activation of dog NCX1 expressed in BHK cells assessed as reverese NCX current at 10 uM at +60 mV holding potential by whole-cell patch clamp electrophysiology method; format: cell-based; settings: Canis lupus familiaris, filed as activator
BHK [13] = experiment: Activation of dog NCX3 expressed in BHK cells assessed as forward NCX current at 10 uM at -120 mV holding potential by whole-cell patch clamp electrophysiology method; format: cell-based; settings: Canis lupus familiaris, filed as activator
BHK [14] = experiment: Activation of dog NCX3 expressed in BHK cells assessed as reverse NCX current at 10 uM at + 60 mV holding potential by whole-cell patch clamp electrophysiology method; format: cell-based; settings: Canis lupus familiaris, filed as activator

Row | Compound | Activity (Cortical neurone [1]) | Activity (BHK [2]) | IC50 [3] | Activity (Cortical neurone [4]) | Activity (Cortical neurone [5]) | Activity (BHK [6]) | inhibition (BHK [7]) | inhibition (BHK [8]) | Activity (BHK [9]) | Activity (BHK [10]) | Activity (BHK [11]) | Activity (BHK [12]) | Activity (BHK [13]) | Activity (BHK [14])
1 | O=C1CN=C(c2ccccc2Cl)c2cc([N+](=O)[O-])ccc2N1CN1CCCC1 | Active | Active | 10 µM | Dose-Dependent Effect | Dose-Dependent Effect | Active |  |  |  |  |  |  |  | 
2 | O=C1CN=C(c2ccccc2)c2cc([N+](=O)[O-])ccc2N1CCN1CCCC1 |  |  |  | inactive |  |  | Active | Active |  |  |  |  |  | 
3 | CC1CCCCN1C(=O)CN1C(=O)CN=C(c2ccccc2)c2cc([N+](=O)[O-])ccc21 (stereo not drawn) |  | Active |  | inactive |  | Active |  |  | Active | Active | Active | Active | Active | Active

— ChEMBL document CHEMBL5036354, “New Insights into the Structure-Activity Relationship and Neuroprotective Profile of Benzodiazepinone Derivatives of Neurounina-1 as Modulators of the Na+/Ca2+ Exchanger Isoforms” (J Med Chem, 2021)
